# What was measured:
# [1] = molecular target: T1, hTLR8 (Homo sapiens, UniProt Q9NR97); test: Agonistic activity on human TLR8 in HEK-Blue hTLR8 cells (QUANTI-Blue); type: cell-based; conditions: 24 h incubation, OD650, read-out: hTLR 8 EC50
# T1 construct: expressed in transfected cells; host or cells: HEK-Blue hTLR8 cells
# T1 sequence (Q9NR97 27-1041): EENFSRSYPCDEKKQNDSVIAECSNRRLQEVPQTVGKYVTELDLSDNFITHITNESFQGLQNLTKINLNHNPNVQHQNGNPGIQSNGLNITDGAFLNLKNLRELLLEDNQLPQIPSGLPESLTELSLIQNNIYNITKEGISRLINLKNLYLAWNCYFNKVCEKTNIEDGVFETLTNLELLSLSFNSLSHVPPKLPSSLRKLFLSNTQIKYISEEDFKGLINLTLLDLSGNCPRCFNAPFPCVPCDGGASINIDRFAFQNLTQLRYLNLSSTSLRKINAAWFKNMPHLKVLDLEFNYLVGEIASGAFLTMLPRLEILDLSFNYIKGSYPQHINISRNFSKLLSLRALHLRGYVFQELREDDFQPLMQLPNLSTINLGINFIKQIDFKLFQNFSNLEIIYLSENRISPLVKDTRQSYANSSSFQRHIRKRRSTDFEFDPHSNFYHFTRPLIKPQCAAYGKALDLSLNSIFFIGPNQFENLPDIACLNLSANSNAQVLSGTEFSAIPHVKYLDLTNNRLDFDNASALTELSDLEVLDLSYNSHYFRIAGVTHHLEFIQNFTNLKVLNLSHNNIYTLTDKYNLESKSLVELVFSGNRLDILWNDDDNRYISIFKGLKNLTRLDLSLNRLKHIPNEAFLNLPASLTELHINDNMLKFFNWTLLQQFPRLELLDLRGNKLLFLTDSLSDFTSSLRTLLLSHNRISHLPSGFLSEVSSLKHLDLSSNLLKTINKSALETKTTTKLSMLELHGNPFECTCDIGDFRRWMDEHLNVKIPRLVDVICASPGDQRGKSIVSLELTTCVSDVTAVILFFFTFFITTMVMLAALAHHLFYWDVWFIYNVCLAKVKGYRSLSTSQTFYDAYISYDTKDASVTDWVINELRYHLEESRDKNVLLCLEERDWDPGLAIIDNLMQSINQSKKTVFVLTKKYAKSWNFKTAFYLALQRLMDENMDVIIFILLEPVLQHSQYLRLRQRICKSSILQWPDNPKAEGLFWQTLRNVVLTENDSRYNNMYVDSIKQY
# Protocol: Purpose: HEK-Blue™ hTLR7 and HEK-Blue™ hTLR8 cells were used to detect the agonist and cytotoxic activities of compounds against hTLR7 and hTLR8.
# The experimental steps were as shown below: • 1) Preparation of compound: The compound was prepared into a 20 mM stock solution with DMSO, and then the stock solution was diluted 3-fold in a gradient and added to a 96-well plate, for a total of 10 concentrations, with duplicate wells for each concentration. For negative control wells, 0.5 μL DMSO was added to each well. The final DMSO concentration was 0.5%. • 2) HEK-Blue™ hTLR7 or HEK-Blue™ hTLR8 cells were suspended in culture medium and then seeded into 96-well plates containing compounds at a cell count of 50,000 per well. The compounds and cells were incubated for 24 h at 37° C., 5% Co2. • 3) QUANTI-Blue was used for the detection solution: to a mixture of 1 mL of QB reagent and 1 mL of QB buffer was added 98 mL of sterile water, the mixture was mixed and dissolved, and then placed at room temperature for 10 min. • 4) Activity test of the compound: 20 μL of the culture supernatant in step 2) was added to each well of a 96-well plate containing 180 μL of QUANTI-Blue detection solution. After incubation at 37° C. for 1 h, the absorbance at 650 nm (OD650) was detected using a multifunctional microplate reader Flextation III. • 5) Detection of cell activity: The chemiluminescent signal (RLU) was detected using the multifunctional microplate reader Flextation III according to the instructions of Celltiter-Glo. • 6) Data analysis
# Activity of compounds: OD650 values were analyzed using GraphPad Prism software, and the compound dose-effect curves were fitted to calculate the EC50 values of the compounds.
# [2] = molecular target: T2, hTLR7 (Homo sapiens, UniProt Q9NYK1); test: Agonistic activity on human TLR7 in HEK-Blue hTLR7 cells (QUANTI-Blue); type: cell-based; conditions: 24 h incubation, OD650, read-out: hTLR 7 EC50
# T2 construct: expressed in transfected cells; host or cells: HEK-Blue hTLR7 cells
# T2 sequence (Q9NYK1 27-1049): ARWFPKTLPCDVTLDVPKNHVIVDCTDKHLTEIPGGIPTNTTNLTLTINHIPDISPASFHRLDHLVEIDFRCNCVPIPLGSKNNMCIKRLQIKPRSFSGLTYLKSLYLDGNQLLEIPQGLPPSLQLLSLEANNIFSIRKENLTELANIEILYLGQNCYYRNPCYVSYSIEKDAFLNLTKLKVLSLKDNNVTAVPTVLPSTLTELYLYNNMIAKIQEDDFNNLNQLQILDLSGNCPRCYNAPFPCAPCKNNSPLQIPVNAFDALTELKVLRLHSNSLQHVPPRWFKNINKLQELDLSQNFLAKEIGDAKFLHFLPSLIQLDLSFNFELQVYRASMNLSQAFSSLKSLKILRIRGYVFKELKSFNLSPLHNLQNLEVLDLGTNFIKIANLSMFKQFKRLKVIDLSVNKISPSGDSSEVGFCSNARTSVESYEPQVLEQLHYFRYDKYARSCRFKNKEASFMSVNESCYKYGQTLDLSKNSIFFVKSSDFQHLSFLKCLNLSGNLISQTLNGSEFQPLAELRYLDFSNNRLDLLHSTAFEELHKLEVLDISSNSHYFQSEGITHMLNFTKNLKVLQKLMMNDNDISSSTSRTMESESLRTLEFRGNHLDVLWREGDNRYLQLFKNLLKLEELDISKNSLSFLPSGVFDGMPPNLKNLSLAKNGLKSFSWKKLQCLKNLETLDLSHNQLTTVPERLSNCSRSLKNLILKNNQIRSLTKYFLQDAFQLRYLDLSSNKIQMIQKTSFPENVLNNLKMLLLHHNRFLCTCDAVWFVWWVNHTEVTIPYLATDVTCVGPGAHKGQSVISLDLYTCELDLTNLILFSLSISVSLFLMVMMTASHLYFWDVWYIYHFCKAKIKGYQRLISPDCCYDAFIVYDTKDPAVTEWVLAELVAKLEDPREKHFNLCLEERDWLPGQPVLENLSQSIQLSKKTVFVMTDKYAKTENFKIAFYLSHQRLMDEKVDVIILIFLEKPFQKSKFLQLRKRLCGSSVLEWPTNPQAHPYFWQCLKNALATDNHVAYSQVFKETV
# [3] = in vitro; conditions: human
# [4] = molecular target: T3, hERG channel (Homo sapiens, UniProt Q12809); test: hERG channel current in HEK293 cells, automated patch clamp; type: cell-based; conditions: HEK-293 cells stably expressing hERG, whole-cell patch clamp, 0.3-30 μM
# T3 construct: expressed in transfected cells; host or cells: HEK-293 cells stably expressing hERG
# T3 sequence (Q12809 whole entry): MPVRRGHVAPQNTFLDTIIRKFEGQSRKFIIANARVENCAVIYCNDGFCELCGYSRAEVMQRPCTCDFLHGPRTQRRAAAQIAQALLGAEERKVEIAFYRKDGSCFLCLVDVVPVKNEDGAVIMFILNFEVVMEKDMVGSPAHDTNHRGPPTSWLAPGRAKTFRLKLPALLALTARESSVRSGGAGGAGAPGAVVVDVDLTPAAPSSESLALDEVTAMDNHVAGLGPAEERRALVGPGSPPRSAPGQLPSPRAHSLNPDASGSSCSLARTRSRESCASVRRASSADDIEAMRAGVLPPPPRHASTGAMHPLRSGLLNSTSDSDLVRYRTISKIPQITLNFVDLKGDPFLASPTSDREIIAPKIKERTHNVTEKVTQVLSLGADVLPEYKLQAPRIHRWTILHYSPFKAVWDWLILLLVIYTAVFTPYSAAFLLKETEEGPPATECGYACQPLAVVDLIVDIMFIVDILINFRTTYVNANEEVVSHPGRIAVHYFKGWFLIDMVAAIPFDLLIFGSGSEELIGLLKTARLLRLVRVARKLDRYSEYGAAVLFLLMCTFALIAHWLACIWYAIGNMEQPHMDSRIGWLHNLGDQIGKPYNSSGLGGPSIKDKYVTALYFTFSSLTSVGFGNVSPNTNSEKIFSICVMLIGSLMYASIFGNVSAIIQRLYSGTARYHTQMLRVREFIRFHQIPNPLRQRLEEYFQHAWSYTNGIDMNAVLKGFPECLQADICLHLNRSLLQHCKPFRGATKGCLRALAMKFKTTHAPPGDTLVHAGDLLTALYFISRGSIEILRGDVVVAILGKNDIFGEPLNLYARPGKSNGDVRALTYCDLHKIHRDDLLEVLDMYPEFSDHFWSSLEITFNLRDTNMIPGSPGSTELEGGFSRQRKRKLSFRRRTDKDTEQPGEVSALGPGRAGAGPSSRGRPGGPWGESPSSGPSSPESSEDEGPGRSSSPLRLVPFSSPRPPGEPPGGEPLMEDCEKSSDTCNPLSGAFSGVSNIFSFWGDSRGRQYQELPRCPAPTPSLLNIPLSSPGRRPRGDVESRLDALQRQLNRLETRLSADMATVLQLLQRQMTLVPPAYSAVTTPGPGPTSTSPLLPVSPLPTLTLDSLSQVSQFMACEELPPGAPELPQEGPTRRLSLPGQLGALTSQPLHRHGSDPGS
# Protocol: Test 2: Detection of the Effect of Compounds on hERG Channel Currents Stably Expressed in HEK293 Cells Using Automated Patch Clamp
# Experimental purpose: The concentration-effect relationship of the blocking effect of the compounds on hERG channels was determined using the patch clamp technique and HEK-293 cells stably expressing hERG channels to evaluate their risk of inhibitory effect on cardiac hERG potassium channels.
# Experimental method: hERG cells were clamped using the patch clamp technique to form a high-resistance seal and then the membrane was broken. The whole-cell recording mode was used to record the hERG current. Each drug concentration was set to be administered twice for at least 5 minutes. The test concentrations were 0.3 μM, 1 μM, 3 μM, 10 μM and 30 μM, and the changes of the test compounds on hERG current were observed.
# [5] = tested on: CYP1A2; test: Induction of CYP1A2 in frozen human hepatocytes; type: in vitro ADME; conditions: 72 h induction, concentration and readout not stated
# Protocol: (§1) Experimental purpose: Using frozen human hepatocytes as the test system, the induction effects of the test substances on CYP1A2, CYP2B6 and CYP3A4 were evaluated from two aspects of enzyme activity and mRNA level.
# (§2) Experimental method: 24 hours after cell plating, induction was started by adding medium containing the test compound (test concentrations were 10, 1, and 0.1 μM), and fresh drug-containing medium was replaced every 24 hours. After 72 hours of induction, the medium was replaced with medium containing CYP1A2, CYP2B6, and CYP3A4 specific substrates for 30 minutes of incubation. 100 μL was taken for treatment, and the labeled metabolites of the substrates were detected to evaluate the enzyme activity level. Finally, the cells were lysed and reverse transcribed, and the expression levels of CYP1A2, CYP2B6 and CYP3A4 genes in the cells were evaluated by real-time quantitative PCR.
# (§3) The induction fold of the test compound compared with the blank control and the induction percentage of the test compound compared with the positive control were used as the basis for evaluating the induction potential of the test compound. Among them, the positive control for CYP1A2 is Omeprazole; the positive control for CYP2B6 is Phenobarbital; the positive control for CYP3A4 is Rifampicin.
# [6] = tested on: CYP2B6; test: Induction of CYP2B6 in frozen human hepatocytes; type: in vitro ADME; conditions: 72 h induction, concentration and readout not stated; for CYP2B6 Induction percentage relative to positive control (%): positive control Phenobarbital
# Protocol: as §1, §2, §3
# [7] = tested on: CYP3A4; test: Induction of CYP3A4 in frozen human hepatocytes; type: in vitro ADME; conditions: 72 h induction, concentration and readout not stated; for CYP3A4 Induction percentage relative to positive control (%): positive control Rifampicin
# Protocol: as §1, §2, §3
# [8] = Cell toxicity (Celltiter-Glo) in HEK-Blue hTLR8 cells; conditions: human
CYP1A2 Induction fold relative to blank control [5],CYP2B6 Induction fold relative to blank control [6],CYP2B6 Induction percentage relative to positive control (%) [6] [%],CYP3A4 Induction fold relative to blank control [7],CYP3A4 Induction percentage relative to positive control (%) [7] [%],SMILES,EC50 [1] [µM],EC50 [2] [µM],CC50 at 24 h [3] [µM],IC50 [4] [µM],CC50 at 24 h [8] [µM]
–,–,–,–,–,CCCC[C@](C)(CO)Nc1nc(N)nc2cc(-c3cc(=O)n(C)cc3CN3CCNCC3)cnc12 [Example 5],2.72,> 100,> 100,–,–
1.0,1.3,4.2,4.2,2.0,"C=CCCN(C)Cc1c[nH]c(=O)cc1-c1cnc2c(N[C@@](C)(CO)CCCC)nc(N)nc2c1 [Example 9, (R)-4-(2-Amino-4-((1-hydroxy-2-methylhexan-2-yl)amino)pyrido[3,2-d]pyrimidin-7-yl)-5-((but-3-en-1-yl(methyl)amino)methyl)pyridin-2(1H)-one]",0.02,31.8,–,24.7,> 100
2.6,3.6,24.5,9.5,15.8,"CCCC[C@](C)(CO)Nc1nc(N)nc2cc(F)cnc12 [Comparative compounds, (R)-2-((2-amino-7-fluoropyrido[3,2-d]pyrimidin-4-yl)amino)-2-methylhexan-1-ol, reference compound]",–,–,–,3.3,–

# — patent US20250163051A1, “PYRIMIDO AROMATIC RING COMPOUND AND USE THEREOF IN DRUG” (SUNSHINE LAKE PHARMA CO., LTD., priority 2022, published 2025)
